What was measured:
cellular DNA = test system: cellular DNA
Protocol: PdTMPyP4 was dissolved directly into medium as described above. After incubation with graded concentrations of PdTMPyp4 added to the medium for 24 or 48 h, the DNA was extracted and digested. […] Details of the methods used to extract the DNA fraction and prepare the samples for ICP-MS are given in Laster B H, et al. Brachytherapy. 2009; 8:324-30.

[1] = In vitro release of PdTMPyP4 from PLGA rods over time in normal saline; assay type: physicochemical
Protocol: Eight rods, two each of matching weights, were placed in individual Eppendorf tubes with 1 ml of normal saline and incubated at 37° C. For measuring PdTMPyP4 release via absorbance, a 10 μl sample were removed and diluted 1:100 with DDW, and absorbance of the resulting solution measured in the spectrophotometer at 415 nm for the first 28 days. […] The removal of a 10 μl sample from the fresh saline solution required a 1:10 dilution in DDW for appropriate reading. […] To compare the release of PdTMPyP4 after the various dilutions, the concentrations were normalized to the dilution factor used during the first 28 days (1:100).

[2] = test system: L428 Hodgkin's lymphoma cells
Excerpt: In these experiments, PdTMPyP4/PLGA rods, manufactured as described in the Example 1, were used to release and maintain the continuous exposure of exponentially-growing L428 Hodgkin's Lymphoma cells to PdTMPyP4 throughout the 8 day experiment. To maintain and encourage exponential growth, cells were split before they neared their maximum density 1.5×10^6 cells/ml. Precautions were taken, in advance, to prevent the dilution of the drug during cell splitting by placing the rods into the medium that would be used when splits were required. Cells were initially seeded into each of 3 different treatment flasks at a cell density of 3.0×10^5 cells/ml in a volume of 25 ml. The cultures were split at 120 and 192 hours. The flasks consisted of:
Fourteen ‘medium-transfer’ flasks were prepared in advance for use during the splitting of the flasks. Twelve (6 each) of these contained 25 ml of complete medium and either 2 PdTMPyP4/PLGA rods or 2 blank PLGA rods.
Two additional flasks contained 25 ml conditioned medium were prepared in advance, by removing from previously grown cells and sterilizing, and whereto either PdTMPyP4/PLGA or 2 PLGA rods were added. This approach permitted the same exponential growth conditions for all treatments even when the flasks were split.
When cells in either flask A, B, or C neared their maximum cell density and required splitting, all flasks were split at this same time and medium from the transfer flasks was added to both the original and new flasks to restore the volume to 25 ml. A 3-ml aliquot of cells was removed from the flasks containing the suspension cells and was counted on a daily basis using a hemocytometer and trypan blue exclusion. The volume removed was replaced with the pretreated medium. […] Cells in each of the split dishes were counted, and counts from all flasks were combined to yield the total number of cells. By combining the cell counts from the split flasks, and using the total cell number, technical errors in counting the cells from the different flasks were reduced.

[3] = single rod per tumor
Excerpt: One PdTMPyP4 rod, prepared according to the Example 1, was implanted into the KHJJ tumor of each of 4 mice as described in the Example 7 above.
Blood was withdrawn from the junction of the submandibular/facial vein, centrifuged, and the clear supernatant removed, diluted 1:100 and measured in double-distilled water (DDW) as described in the Example 10 below.

telomerase = settings: L428 cells, 24 h incubation, graded concentrations; Pd tag versus H2 tag
Protocol: L428 cells were incubated for 24 h with graded concentrations of PdTMPyP4 or H2TMPyP4 dissolved in RPMI 1640 complete medium. The activation or inhibition of telomerase was measured using the Telomeric Repeat Amplification Protocol (TRAP) assay. The procedure is detailed in Tichon A, et al, Cytotherapy. 2009; 11:837-48.

C[n+]1ccc(-c2c3nc(c(-c4cc[n+](C)cc4)c4ccc([n-]4)c(-c4cc[n+](C)cc4)c4nc(c(-c5cc[n+](C)cc5)c5ccc2[n-]5)C=C4)C=C3)cc1.[Pd+2] [PdTMPyP4, Palladium-tagged tetra (4-N-methylpyridyl) porphyrin]
effect of Pd tag on DNA uptake of the porphyrin (cellular DNA; compared with naive TMPyP4): does not alter DNA uptake
uptake in DNA converted to moles (cellular DNA; incubation 24 or 48 h with graded concentrations): about 1.7×10^−14 mol
measured uptake of Pd atoms in the DNA of the cell (cellular DNA; incubation 24 or 48 h with graded concentrations, ICP-MS): about 10^9 Pd atoms
duration of gradual and continuous release [1]: > 30 days
time of sudden decrease in cells exposed ([2]; 19-day experiment, continuous release from PLGA rods): about 200 h
factor by which cell number was lower than with the other treatments ([2]; 19-day experiment, from about 200 h through remaining 11 days): 5-6 times
cell number compared to the other treatments at end of experiment ([2]; 8 day experiment, 264 h, versus untreated and blank PLGA): lower
time to L428 cell lethality after telomerase inhibition ([2]; continuous exposure via rods): about 8 days
plasma levels by the second and third week [3]: restoration of plasma levels to that on day 0
PdTMPyP4 concentration in blood plasma ([3]; four mice, weekly measurements): negligible concentrations
telomerase activity inhibition (telomerase): superior inhibition
